This test deals with Escherichia coli ATCC 25922. Type of test: cell-based. The settings on record: ATCC 25922. The protocol:
Minimum inhibitory concentration (MIC) was determined by broth microdilution according to CLSI guidelines. Blood agar plates were inoculated with glycerol stocks of Escherichia coli ATCC 25922, E. coli ATCC 25922 MCR-1, E. coli MCR-1 (clinical isolate from Utrecht Medical Center, NL), E. coli EQAS MCR-2 (clinical isolate from Wageningen University and Research, NL), Kiebsielia pneumoniae ATCC 11228, K. pneumoniae ATCC 13883, K. pneumonia 2048 (clinical isolate from Vrije Universiteit Amsterdam Medical Center, NL), K. pneumonia JS-123 (clinical isolate from Utrecht Medical Center, NL), Acinetobacter baumannii ATCC 17961, A. baumannil ATCC 17978, A. baumannii 2018-006 (clinical isolate from Rijksinstituut voor Volksgezondheid en Milieu, NL), A. baumannii MDR (clinical isolate from Vrije Universiteit Amsterdam Medical Center, NL), Pseudomonas aeruginosa ATCC 27853, P. aeruginosa PAO1, P. aeruginosa NRZ-03961 (Reference strain from Das Nationale Referenzzentrum für gramnegative Krankenhauserreger, DE), P. aeruginosa M-120 (clinical isolate from Leiden University Medical Center, NL) and Staphylococcus aureus USA300 (clinical isolate from Texas Children's Hospitalm, USA). E. coli 25922 MCR1 was grown on LB agar supplemented with kanamycin. The inoculated agar plates were then incubated for 16 hours at 37° C. Individually grown colonies were subsequently used to inoculate 3 mL aliquots of TSB that were then incubated at 37° C. with shaking at 220 rpm. In parallel, the compounds to be assessed were serially diluted with Mueller-Hinton broth (MHB) in polypropylene 96-well plates (50 μL in each well). Once the OD600 of the bacterial suspensions reached 0.5, the bacteria were diluted with MHB (final concentration 2×10^5 CFU mL^−1) and added to the microplates containing the test compounds (50 μL to each well, final volume: 100 μL). The well-plates were sealed with an adhesive membrane and after 16 hours of incubation at 37° C. with shaking at 220 rpm the wells were visually inspected for bacterial growth. MIC values were defined as the lowest concentration of the compound that prevented visible growth of bacteria.

Each structure is given as a SMILES string. Values after ≈ are worked out from the molar mass of the structure shown. Positions of bridges follow the written chain, without caps; N, C: chain ends. Non-standard residues stand in square brackets, D forms with d. Residues, ends and D or L forms follow the SMILES beside them. ξ: configuration not given here. *: point of attachment. Octanoyl(7-Me) = CC(C)CCCCCC(=O)*; Hexanoyl(4ξ-Me) = CCC(C)CCC(=O)*; dOrn = NCCC[C@@H](N)C(=O)O; Octanoyl = CCCCCCCC(=O)*; Orn = NCCC[C@H](N)C(=O)O; Dap = NC[C@H](N)C(=O)O; Alloc = C=CCOC(=O)*

Take `CC[C@H](C)[C@@H]1NC(=O)[C@@H](NC(=O)[C@H](Cc2c[nH]c3ccccc23)NC(=O)[C@@H](CCCN)NC(=O)CNC(=O)[C@H](CCCN)NC(=O)[C@@H](CCCN)NC(=O)[C@@H](Cc2c[nH]c3ccccc23)NC(=O)[C@@H](Cc2ccc(O)cc2)NC(=O)[C@@H](CO)NC(=O)CCCCCC(C)C)[C@@H](C)OC(=O)[C@H](C)NC(=O)[C@H](CO)NC(=O)CNC1=O` [Compound R9] ({Octanoyl(7-Me)}-[dS][dY][dW][dOrn][Orn]G[dOrn]WTIGSA; ester 9-C; N-terminus assumed): the “Minimum inhibitory concentration (MIC)” value fell in the range of 1 to 2 mg/L.
In the case of `C=CCOC(=O)NC[C@H](NC(=O)[C@H](Cc1c[nH]c2ccccc12)NC(=O)[C@@H](CCCN)NC(=O)CNC(=O)[C@H](CCCN)NC(=O)[C@@H](CCCN)NC(=O)[C@@H](Cc1c[nH]c2ccccc12)NC(=O)[C@@H](Cc1ccc(O)cc1)NC(=O)[C@@H](CO)NC(=O)CCCCCC(C)C)C(=O)N[C@H](C(=O)N[C@@H](CC(N)=O)C(=O)NCC(N)=O)[C@@H](C)CC` [ΔG13-Dap(Alloc)9-isoC9] ({Octanoyl(7-Me)}-[dS][dY][dW][dOrn][Orn]G[dOrn]W[Dap](Alloc)ING-NH2), the “Minimum inhibitory concentration (MIC)” value was determined as 2 mg/L (≈ 1.22 µM).
With `CC[C@H](C)[C@H](NC(=O)[C@@H](NC(=O)[C@H](Cc1c[nH]c2ccccc12)NC(=O)[C@@H](CCCN)NC(=O)CNC(=O)[C@H](CCCN)NC(=O)[C@@H](CCCN)NC(=O)[C@@H](Cc1c[nH]c2ccccc12)NC(=O)[C@@H](C)NC(=O)[C@@H](CO)NC(=O)CCCCCC(C)C)[C@@H](C)O)C(=O)N[C@@H](CC(N)=O)C(=O)NCC(=O)NCC(N)=O` [Ala2 (D-Tyr→D-Ala), FA-sawoOGoWTINGG-CONH2] ({Octanoyl(7-Me)}-[dS][dA][dW][dOrn][Orn]G[dOrn]WTINGG-NH2), the “Minimum inhibitory concentration (MIC)” value was in the range of 8 to 16 mg/L.
Take `CCC(C)CCC(=O)N[C@H](CO)C(=O)N[C@H](Cc1ccc(O)cc1)C(=O)N[C@H](Cc1c[nH]c2ccccc12)C(=O)N[C@H](CCCN)C(=O)N[C@@H](CCCN)C(=O)NCC(=O)N[C@H](CCCN)C(=O)N[C@@H](Cc1c[nH]c2ccccc12)C(=O)N[C@@H]1C(=O)N[C@@H]([C@@H](C)CC)C(=O)NCC(=O)N[C@@H](CO)C(=O)NCC(=O)O[C@@H]1C` (stereo partly drawn) [Compound R1] ({Hexanoyl(4ξ-Me)}-[dS][dY][dW][dOrn][Orn]G[dOrn]WTIGSG; ester 9-C; N-terminus assumed): the “Minimum inhibitory concentration (MIC)” value turned out to be 2 mg/L (≈ 1.29 µM).
As for `CC[C@H](C)[C@H](NC(=O)[C@@H](NC(=O)[C@H](Cc1c[nH]c2ccccc12)NC(=O)[C@@H](CCCN)NC(=O)CNC(=O)[C@H](CCCN)NC(=O)[C@@H](CCCN)NC(=O)[C@@H](Cc1c[nH]c2ccccc12)NC(=O)[C@@H](Cc1ccc(O)cc1)NC(=O)[C@@H](C)NC(=O)CCCCCC(C)C)[C@@H](C)O)C(=O)N[C@@H](CC(N)=O)C(=O)NCC(=O)NCC(N)=O` [Ala1 (D-Ser→D-Ala), FA-aywoOGoWTINGG-CONH2] ({Octanoyl(7-Me)}-[dA][dY][dW][dOrn][Orn]G[dOrn]WTINGG-NH2), the figure is 4 to 8 mg/L.
On to `C=CCOC(=O)NC[C@H](NC(=O)[C@H](Cc1c[nH]c2ccccc12)NC(=O)[C@@H](CCCN)NC(=O)CNC(=O)[C@H](CCCN)NC(=O)[C@@H](CCCN)NC(=O)[C@@H](Cc1c[nH]c2ccccc12)NC(=O)[C@@H](Cc1ccc(O)cc1)NC(=O)[C@@H](CO)NC(=O)CCCCCC(C)C)C(=O)N[C@H](C(=O)N[C@@H](CC(N)=O)C(N)=O)[C@@H](C)CC` [ΔG12-G13-Dap(Alloc)9-isoC9] ({Octanoyl(7-Me)}-[dS][dY][dW][dOrn][Orn]G[dOrn]W[Dap](Alloc)IN-NH2), for which the “Minimum inhibitory concentration (MIC)” value amounted to 4 mg/L (≈ 2.54 µM).
For the compound `CC[C@H](C)[C@H](NC(=O)[C@H](CC(C)C)NC(=O)[C@H](Cc1c[nH]c2ccccc12)NC(=O)[C@@H](CCCN)NC(=O)CNC(=O)[C@H](CCCN)NC(=O)[C@@H](CCCN)NC(=O)[C@@H](Cc1c[nH]c2ccccc12)NC(=O)[C@@H](Cc1ccc(O)cc1)NC(=O)[C@@H](CO)NC(=O)CCCCCC(C)C)C(=O)N[C@@H](CC(N)=O)C(=O)NCC(=O)NCC(N)=O` [Leu9-CONH2] ({Octanoyl(7-Me)}-[dS][dY][dW][dOrn][Orn]G[dOrn]WLINGG-NH2), the “Minimum inhibitory concentration (MIC)” value was in the range of 2 to 4 mg/L.
Turning to `CC[C@H](C)[C@H](NC(=O)[C@H](CN)NC(=O)[C@H](Cc1c[nH]c2ccccc12)NC(=O)[C@@H](CCCN)NC(=O)CNC(=O)[C@H](CCCN)NC(=O)[C@@H](CCCN)NC(=O)[C@@H](Cc1c[nH]c2ccccc12)NC(=O)[C@@H](Cc1ccc(O)cc1)NC(=O)[C@@H](CO)NC(=O)CCCCCC(C)C)C(=O)N[C@@H](CC(N)=O)C(=O)NCC(=O)NCC(N)=O` [Dap9-CONH2] ({Octanoyl(7-Me)}-[dS][dY][dW][dOrn][Orn]G[dOrn]W[Dap]INGG-NH2), the “Minimum inhibitory concentration (MIC)” value came out at 4 mg/L (≈ 2.49 µM).
Take `CC(C)CCCCCC(=O)N[C@H](CO)C(=O)N[C@H](Cc1ccc(O)cc1)C(=O)N[C@H](Cc1c[nH]c2ccccc12)C(=O)N[C@H](CCCN)C(=O)N[C@@H](CCCN)C(=O)NCC(=O)N[C@H](CCCN)C(=O)N[C@@H](Cc1c[nH]c2ccccc12)C(N)=O` [ΔT9-G13, FA-sywoOGoW-CONH2] ({Octanoyl(7-Me)}-[dS][dY][dW][dOrn][Orn]G[dOrn]W-NH2): the “Minimum inhibitory concentration (MIC)” value came to 16 mg/L (≈ 13.6 µM).
Then `CC[C@H](C)[C@H](NC(=O)[C@H](Cc1c[nH]c2ccccc12)NC(=O)[C@H](Cc1c[nH]c2ccccc12)NC(=O)[C@@H](CCCN)NC(=O)CNC(=O)[C@H](CCCN)NC(=O)[C@@H](CCCN)NC(=O)[C@@H](Cc1c[nH]c2ccccc12)NC(=O)[C@@H](Cc1ccc(O)cc1)NC(=O)[C@@H](CO)NC(=O)CCCCCC(C)C)C(=O)N[C@@H](CC(N)=O)C(=O)NCC(=O)NCC(N)=O` [Trp9-CONH2] ({Octanoyl(7-Me)}-[dS][dY][dW][dOrn][Orn]G[dOrn]WWINGG-NH2), with 4 mg/L (≈ 2.34 µM); and `CC(C)CCCCCC(=O)N[C@H](CO)C(=O)N[C@H](Cc1ccc(O)cc1)C(=O)N[C@H](Cc1c[nH]c2ccccc12)C(=O)N[C@H](CCCN)C(=O)N[C@@H](CCCN)C(=O)NCC(=O)N[C@H](CCCN)C(=O)N[C@@H](Cc1c[nH]c2ccccc12)C(=O)N[C@H](C(=O)N[C@@H](C)C(=O)N[C@@H](CC(N)=O)C(=O)NCC(=O)NCC(N)=O)[C@@H](C)O` [Ala10 (Ile→Ala), FA-sywoOGoWTANGG-CONH2] ({Octanoyl(7-Me)}-[dS][dY][dW][dOrn][Orn]G[dOrn]WTANGG-NH2), with 16 mg/L (≈ 10.1 µM).
For the compound `CCCCCCCC(=O)N[C@H](CO)C(=O)N[C@H](Cc1ccc(O)cc1)C(=O)N[C@H](Cc1c[nH]c2ccccc12)C(=O)N[C@H](CCCN)C(=O)N[C@@H](CCCN)C(=O)NCC(=O)N[C@H](CCCN)C(=O)N[C@@H](Cc1c[nH]c2ccccc12)C(=O)N[C@@H](CO)C(=O)N[C@H](C(=O)N[C@@H](CC(N)=O)C(N)=O)[C@@H](C)CC` [ΔG12-G13-Ser9-C8] (Octanoyl-[dS][dY][dW][dOrn][Orn]G[dOrn]WSIN-NH2), the “Minimum inhibitory concentration (MIC)” value worked out at 4 mg/L (≈ 2.7 µM).
Regarding `CC[C@H](C)[C@H](NC(=O)[C@@H](NC(=O)[C@H](Cc1c[nH]c2ccccc12)NC(=O)[C@@H](CCCN)NC(=O)CNC(=O)[C@H](CCCN)NC(=O)[C@@H](CCCN)NC(=O)[C@@H](Cc1c[nH]c2ccccc12)NC(=O)[C@@H](Cc1ccc(O)cc1)NC(=O)[C@@H](CO)NC(=O)CCCCCC(C)C)[C@@H](C)O)C(N)=O` [ΔN11-G13, FA-sywoOGoWTI-CONH2] ({Octanoyl(7-Me)}-[dS][dY][dW][dOrn][Orn]G[dOrn]WTI-NH2), the “Minimum inhibitory concentration (MIC)” value worked out at 4 mg/L (≈ 2.87 µM).
Consider `CCC(C)CCC(=O)N[C@H](CO)C(=O)N[C@H](Cc1ccc(O)cc1)C(=O)N[C@H](Cc1c[nH]c2ccccc12)C(=O)N[C@H](CCCN)C(=O)N[C@@H](CCCN)C(=O)NCC(=O)N[C@H](CCCN)C(=O)N[C@@H](Cc1c[nH]c2ccccc12)C(=O)N[C@@H]1C(=O)N[C@@H]([C@@H](C)CC)C(=O)NCC(=O)N[C@H](CO)C(=O)NCC(=O)O[C@@H]1C` (stereo partly drawn) [Compound R2] ({Hexanoyl(4ξ-Me)}-[dS][dY][dW][dOrn][Orn]G[dOrn]WTIG[dS]G; ester 9-C; N-terminus assumed), for which the “Minimum inhibitory concentration (MIC)” value came to 2 mg/L (≈ 1.29 µM).
In the case of `CC[C@H](C)[C@@H]1NC(=O)[C@@H](NC(=O)[C@H](Cc2c[nH]c3ccccc23)NC(=O)[C@@H](CCCN)NC(=O)CNC(=O)[C@H](CCCN)NC(=O)[C@@H](CCCN)NC(=O)[C@@H](Cc2c[nH]c3ccccc23)NC(=O)[C@@H](Cc2ccc(O)cc2)NC(=O)[C@@H](CO)NC(=O)CCCCCC(C)C)[C@@H](C)OC(=O)[C@@H](C)NC(=O)[C@H](CO)NC(=O)CNC1=O` [Compound R11] ({Octanoyl(7-Me)}-[dS][dY][dW][dOrn][Orn]G[dOrn]WTIGS[dA]; ester 9-C; N-terminus assumed), the “Minimum inhibitory concentration (MIC)” value worked out at 1 mg/L (≈ 0.628 µM).

Source of the values: patent publication US20240140991A1, “ANTIBIOTIC NATURAL PRODUCT ANALOGUES” (THE QUEEN'S UNIVERSITY OF BELFAST, priority 2021, published 2024).
